Reference: patent US6930203B2, “Gelling agents or thickeners” (Applied NanoSystems B.V., priority 2001, dated 2005)

Assay: Solvent scope of N,N′-dialkylaldaramides (1%) or N,N′-dialkylpentaramides (1%): gelation/solubility behaviour in solvents
Type: physicochemical
Parameters: key: g = gelation; s = soluble; p = precipitates; c = crystallizes; ns = not soluble; v = viscous; g* = unstable gel, precipitates; cg = crystalline gel
Details: 1% gelling agent
Description: It will be understood that the use of the present gelling agents or thickeners to prepare a gel or to thicken a composition is also encompassed by the invention. As is well known, gelling behavior of compounds or compositions is highly unpredictable. […] Preferably, the gelling phenomenon is thermo reversible.
Preferred examples include aromatic and nonaromatic hydrocarbons, alcohols, ethers, esters, aldehydes, alkanoic acids, epoxides, amines, halogenated hydrocarbons, silicon oils, vegetable oils, phosphoric esters, sulfoxides, water and mixtures thereof. In order to obtain a gel, the gelling agent or thickener is preferably mixed with the composition to be transformed to a gel in an amount of between 0.01 and 50 wt. %, based on the weight of the composition. In a preferred embodiment, the mixture of the gelling agent or thickener and the composition is heated to allow for an even better gel formation or thickening. Typically, the heating will involve raising the temperature of the mixture to about 30-175° C. until a clear solution is obtained. In an alternative embodiment, the gelling agent is first dissolved in a polar or apolar solvent and then added to or sprayed into a composition or solvent to be converted into a gel.
Solvent scope of N,N′-dialkylaldaramides (1%) or N,N′-dialkylpentaramides (1%) 1-24 refers to the compounds prepared in Examples 1-23)

Gelation/solubility behaviour in 1,2-dichloroethane	Gelation/solubility behaviour in Cyclohexane	Gelation/solubility behaviour in Hexadecane	Gelation/solubility behaviour in Toluene	Gelation/solubility behaviour in Water	Gelation/solubility behaviour in n-butylacetate	Gelation/solubility behaviour in p-xylene	Gelation/solubility behaviour in 2-octanol	Gelation/solubility behaviour in 2-propanol	Gelation/solubility behaviour in Dimethylsulfoxide	Gelation/solubility behaviour in Ethanol	Gelation/solubility behaviour in methyl benzoic acid (methyl benzoic acid)	Gelation/solubility behaviour in silicon oil (silicon oil)	Compound
ns	ns	ns	ns	ns	ns	ns	ns	c	s	c			CCCCNC(=O)[C@@H](O)[C@H](O)[C@H](O)[C@@H](O)C(=O)NCCCC [Example 3, dibutyl galactaramide]
ns	ns	ns	ns	ns	ns	ns	ns	c	s	c			CCCCCCCCNC(=O)[C@@H](O)[C@@H](O)[C@H](O)[C@@H](O)C(=O)NCCCCCCCC [Example 8, dioctyl D-glucaramide]
ns	ns	ns	ns	ns	ns	ns	ns	ns	s	c			CCCCCCCCNC(=O)[C@@H](O)[C@H](O)[C@H](O)[C@@H](O)C(=O)NCCCCCCCC [Example 10, dioctyl galactaramide]
c	p	p	p	ns	c	p	c	c	c	c			CCCCCCCC/C=C\CCCCCCCCNC(=O)[C@@H](O)[C@@H](O)[C@H](O)[C@@H](O)C(=O)NCCCCCCCC/C=C\CCCCCCCC [Example 19, dioleyl D-glucaramide]

The remaining lines, values behind:

Compound	Gelation/solubility behaviour in 1,2-dichloroethane	Gelation/solubility behaviour in Cyclohexane	Gelation/solubility behaviour in Hexadecane	Gelation/solubility behaviour in Toluene	Gelation/solubility behaviour in Water	Gelation/solubility behaviour in n-butylacetate	Gelation/solubility behaviour in p-xylene	Gelation/solubility behaviour in 2-octanol	Gelation/solubility behaviour in 2-propanol	Gelation/solubility behaviour in Dimethylsulfoxide	Gelation/solubility behaviour in Ethanol	Gelation/solubility behaviour in methyl benzoic acid (methyl benzoic acid)	Gelation/solubility behaviour in silicon oil (silicon oil)
CCCCNC(=O)[C@@H](O)[C@@H](O)[C@H](O)[C@@H](O)C(=O)NCCCC [Example 1, dibutyl D-glucaramicle]	ns	ns	ns	ns	ns	ns	ns						
CCCCNC(=O)[C@@H](O)[C@@H](O)[C@H](O)[C@H](O)C(=O)NCCCC [Example 2, dibutyl D-mannaramide]	Ns	Ns	Ns	Ns	Ns	Ns	Ns	Ns					
O=C(NC1CCCCC1)[C@@H](O)[C@@H](O)[C@@H](O)C(=O)NC1CCCCC1 [Example 4, dicyclohexyl D-ribaramide]	s	ns	ns	p	ns	p	p	p	p	s	s		
CCCCCCCCNC(=O)[C@@H](O)[C@@H](O)[C@H](O)[C@H](O)C(=O)NCCCCCCCC [Example 9, dioctyl D-mannaramide]	ns	ns	ns	ns	ns	ns	ns	ns	c	c	c		
CCCCCCCCCCCCNC(=O)[C@@H](O)[C@@H](O)[C@H](O)[C@H](O)C(=O)NCCCCCCCCCCCC [Example 13, didodecyl D-mannaramide]	c	ns	ns	ns	ns	ns	ns	p	c	c	ns		
O=C(NC1CCCCCCCCCCC1)[C@@H](O)[C@@H](O)[C@H](O)[C@H](O)C(=O)NC1CCCCCCCCCCC1 [Example 16, dicyclododecyl D-mannaramide]	c	ns	ns	ns	ns	ns	ns	s	cg	p	p		
CO[C@@H]([C@H](O)[C@H](O)C(=O)NC1CCCCC1)[C@@H](O)C(=O)NC1CCCCC1 [Example 20, 3-O-methyl-dicyclohexyl D-glucaramide]	c	ns	ns	p	ns	p	p	p	c	s	c		
CCCCCCCCCCCCNC(=O)[C@@H](O)[C@@H](O)[C@H](OC)[C@@H](O)C(=O)NCCCCCCCCCCCC [Example 21, 3-O-methyl-didodecyl D-glucaramide]	p	g	p	p	ns	c	p	c	p	p	p	p	v
